Assay results reported in patent US10195156B2, “Compounds and compositions for intracellular delivery of agents” (ModernaTX, Inc., priority 2015, dated 2019).

Tests used:
[1] = Particle size and polydispersity index of nanoparticle compositions (Zetasizer Nano ZS); type: physicochemical
Summary of the method: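 Values are size and PDI readings from a Zetasizer Nano ZS. Measurements are taken in 1×PBS; zeta potential, by contrast, uses 15 mM PBS.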

[2] = Encapsulation efficiency of RNA (QUANT-IT RIBOGREEN RNA assay); type: physicochemical
Summary of the method: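 RiboGreen fluorescence (ex ~480, em ~520 nm) measured after 15 min at 37 °C on samples at ~5 μg/mL in TE, pH 7.5, ± 2% Triton X-100 solution. After blank subtraction, free RNA is given as intact-sample signal divided by disrupted-sample signal.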

[3] = test system: IP-10; experiment: Cytokine production induced by sample formulations: IP-10; type: in vivo; details: mice, i.v., 0.5 mpk, 6 hours, in pg/mL (unit assumed)
Summary of the method: (§1)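 Cytokine levels were quantified at 6 hours in mice given the nanoparticle compositions i.v. at 0.5 mpk. MC3 standard formulation and PBS served as comparators.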

[4] = test system: luciferase (Luc) mRNA expression; experiment: Expression of Luc induced by sample formulations, whole-body bioluminescence after intravenous administration; type: in vivo; details: mice, i.v., 0.5 mg/kg
Summary of the method: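 Read-out is whole-body bioluminescence at 3, 6 and 24 h after a single intravenous dose of 0.5 mg/kg Luc mRNA in nanoparticle formulations. Groups of n=6 mice; PBS and standard MC3 formulation as references.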

[5] = test system: modified luciferase expression; experiment: Expression of Luc in different organs (liver, lung, spleen, femur) 6 hours after intravenous administration; type: in vivo; details: i.v., 0.5 mpk
Protocol: The efficacy of the nanoparticle compositions presented in Tables 1, 1a, 17-1, 19-1, 20-1 and 21-1 was further evaluated by measuring the expression of modified luciferase in the liver, lung, spleen, and femur upon administration of a given composition. Formulations were administered intravenously to mice (n=3) at a dosage of 0.5 mpk and bioluminescence measured after 6 hours. The standard MC3 formulation and a PBS control were also tested.

[6] = pKa of nanoparticle compositions; type: physicochemical
[7] = test system: IL-6; experiment: Cytokine production induced by sample formulations: IL-6; type: in vivo; details: mice, i.v., 0.5 mpk, 6 hours, in pg/mL (unit assumed)
Summary of the method: as §1

[8] = Table 20-1, rows without footnote mark
[9] = Table 1, rows without footnote mark
[10] = Table 1, rows without footnote mark (lipid:DOPE:cholesterol:PEG-DMG 40:20:38.5:1.5, Luc mRNA; MC3 standard formulation)
[11] = Table 1, * lipid:DSPC:Chol:PEG-DMG 50:10:38.5:1.5

| SMILES | PDI [1, 9] | Size (nm) [1, 10] [nm] | EE (%) [2, 9] [%] | IP-10 ([3]; Table 4) | Total Flux 3 hours ([4]; Table 2, 3 hours) | Total Flux 6 hours ([4]; Table 2) | Total Flux 24 hours ([4]; Table 2) | Total Flux Liver ([5]; Table 3, mice) | Total Flux Lung ([5]; Table 3, mice) | Total Flux Spleen ([5]; Table 3, mice) | pKa [6, 9] | IL-6 ([7]; Table 4) | Total Flux Femur ([5]; Table 3, mice) | further results |
| --- | --- | --- | --- | --- | --- | --- | --- | --- | --- | --- | --- | --- | --- | --- |
| CCCCC/C=C\C/C=C\CCCCCCCCN(CCO)CCN(CCCCCCCCCCCC)CCCCCCCCCCCC [Compound 20-25, 2-((2-(Didodecylamino)ethyl)((9Z,12Z)-octadeca-9,12-dien-1-yl)amino)ethan-1-ol] |  |  |  |  |  |  |  |  |  |  |  |  |  | PDI [1, 8]: 0.171; Size (nm) [1, 8]: 71.7 nm; EE (%) [2, 8]: 98.4%; IP-10 ([3]; Table 20-4, formula (20-I)): 188.0; Total Flux 3 hours ([4]; Table 20-2, 3 hours): 1.16E+09; Total Flux 6 hours ([4]; Table 20-2): 1.78E+09; Total Flux 24 hours ([4]; Table 20-2): 3.82E+07; Total Flux Femur ([5]; Table 20-3, mice): 3.13E+05; Total Flux Liver ([5]; Table 20-3, mice): 1.88E+08; Total Flux Lung ([5]; Table 20-3, mice): 7.85E+05; Total Flux Spleen ([5]; Table 20-3, mice): 4.16E+06; pKa [6, 8]: 6.23; IL-6 ([7]; Table 20-4, formula (20-I)): 20.6 |
| CCCCCCCCCCCCN(CCCCCCCCCCCC)CCN(CCCCCCCCCCCC)CCN1CCN(CCN(CCCCCC)CCCCCC)CC1 [Compound 21, N^1-(2-(4-(2-(Dihexylamino)ethyl)piperazin-1-yl)ethyl)-N^1,N^2,N^2-tridodecylethane-1,2-diamine] | 0.239 | 98.3 | 98.6 | 652 | 1.13E+10 | 1.08E+10 | 1.18E+08 | 1.24E+09 | 2.51E+06 | 1.17E+07 | 6.29 | 48 |  |  |
| CCCCC/C=C\CCCCCN(CCCCC/C=C\CCCCC)CCN1CCN(CCN(CCCCCCCCCCCC)CCN(CCCCCCCCCCCC)CCCCCCCCCCCC)CC1 [Compound 25, N^1-(2-(4-(2-(Di((Z)-dodec-6-en-1-yl)amino)ethyl)piperazin-1-yl)ethyl)-N^1,N^2,N^2-tridodecylethane-1,2-diamine] | 0.186 | 90.0 | 97.0 | 1823 | 1.06E+10 | 1.08E+10 | 2.72E+08 | 2.68E+09 | 5.88E+06 | 6.00E+06 | 6.20 | 131 |  |  |
| CCCCCCCCCCCCCCN(CCCCCCCCCCCCCC)CCN1CCN(CCN(CCCCCCCCCCCC)CCN(CCCCCCCCCCCC)CCCCCCCCCCCC)CC1 [Compound 26, N^1-(2-(4-(2-(Ditetradecylamino)ethyl)piperazin-1-yl)ethyl)-N^1,N^2,N^2-tridodecylethane-1,2-diamine] |  |  |  | 175 | 1.65E+07 | 1.04E+07 | 2.75E+06 | 2.35E+06 | 3.49E+04 | 2.30E+05 |  | 17 |  | Size (nm) ([1]; Table 1, * formulated with lipid:DSPC:Chol:PEG-DMG 50:10:38.5:1.5): 74.2 nm; PDI [1, 11]: 0.112; EE (%) [2, 11]: 84.9%; pKa [6, 11]: 6.19 |
| CCCCC/C=C\C/C=C\CCCCCCCCN(CCCCCCCCCCCC)CCN1CCN(CCN(CCCCCCCCCCCC)CCN(CCCCCCCCCCCC)CCCCCCCCCCCC)CC1 [Compound 27, N^1,N^1,N^2-Tridodecyl-N^2-(2-(4-(2-(dodecyl((9Z,12Z)-octadeca-9,12-dien-1-yl)amino)ethyl)piperazin-1-yl)ethyl)ethane-1,2-diamine] | 0.211 | 86.4 | 97.9 | 2564 | 4.56E+09 | 4.70E+09 | 1.36E+08 | 7.84E+08 | 3.56E+06 | 3.34E+06 | 6.14 | 42 |  |  |
| CCCCCCCC/C=C\CCCCCCCCN(CCCCCCCC/C=C\CCCCCCCC)CCN1CCN(CCN(CCCCCCCCCCCC)CCN(CCCCCCCCCCCC)CCCCCCCCCCCC)CC1 [Compound 28, N^1-(2-(4-(2-(Di((Z)-octadec-9-en-1-yl)amino)ethyl)piperazin-1-yl)ethyl)-N^1,N^2,N^2-tridodecylethane-1,2-diamine] | 0.099 | 87.4 | 80.2 | 5364 | 6.18E+09 | 7.28E+09 | 4.02E+08 | 8.10E+08 | 5.73E+06 | 5.67E+06 | 6.04 | 73 | 1.16E+06 |  |
| CCCCC/C=C\C/C=C\CCCCCCCCN(CCCCCCCC/C=C\C/C=C\CCCCC)CCN1CCN(CCN(CCCCCCCCCCCC)CCN(CCCCCCCCCCCC)CCCCCCCCCCCC)CC1 [Compound 29, N^1-(2-(4-(2-(Di((9Z,12Z)-octadeca-9,12-dien-1-yl)amino)ethyl)piperazin-1-yl)ethyl)-N^1,N^2,N^2-tridodecylethane-1,2-diamine] | 0.060 | 105.3 | 48.8 | 3454 | 1.22E+08 | 2.51E+08 | 2.69E+07 | 2.27E+07 | 4.70E+05 | 2.97E+06 | 5.97 | 108 |  |  |
| CCCCCCCCCCCCCCN(CCCCCCCCCCCCCC)CCN(CCCCCCCCCCCCCC)CCN1CCN(CCN(CCCCCCCCC)CCCCCCCCC)CC1 [Compound 30, N^1-(2-(4-(2-(Dinonylamino)ethyl)piperazin-1-yl)ethyl)-N^1,N^2,N^2-tritetradecylethane-1,2-diamine] | 0.110 | 95.0 | 74.3 | 4235 | 2.87E+10 | 1.59E+10 | 1.95E+09 | 2.42E+09 | 1.61E+07 | 7.18E+06 | 6.09 | 300 | 2.22E+06 | total flux after 3 hours, rank within the named table (in words) ([4]; 3 hours): highest flux after 3 hours |
| CCCCCCCCCCCCCCN(CCCCCCCCCCCCCC)CCN(CCCCCCCCCCCCCC)CCN1CCN(CCN(CCCCCCCCCCCC)CCCCCCCCCCCC)CC1 [Compound 31, N^1-(2-(4-(2-(Didodecylamino)ethyl)piperazin-1-yl)ethyl)-N^1,N^2,N^2-tritetradecylethane-1,2-diamine] | 0.130 | 87.9 | 77.5 | 2513 | 1.43E+10 | 1.42E+10 | 3.07E+08 | 1.54E+09 | 9.81E+06 | 1.28E+07 | 6.31 | 188 | 9.89E+05 |  |
| CCCCCCCCCCCCCCN(CCCCCCCCCCCCCC)CCN(CCCCCCCCCCCCCC)CCN1CCN(CCN(CCCCCCCCCCCCCC)CCCCCCCCCCCCCC)CC1 [Compound 32, N^1-(2-(4-(2-(Ditetradecylamino)ethyl)piperazin-1-yl)ethyl)-N^1,N^2,N^2-tritetradecylethane-1,2-diamine] | 0.160 | 79.3 | 83.6 | 727 | 6.85E+08 | 5.88E+08 | 4.37E+07 | 8.36E+07 | 6.75E+05 | 9.38E+05 | 6.28 | 174 | 1.02E+05 |  |
| CCCCCCCC/C=C\CCCCCCCCN(CCCCCCCC/C=C\CCCCCCCC)CCN(CCCCCCCC/C=C\CCCCCCCC)CCN1CCN(CCN(CCCCCCCCCCCC)CCCCCCCCCCCC)CC1 [Compound 33, N^1-(2-(4-(2-(Didodecylamino)ethyl)piperazin-1-yl)ethyl)-N^1,N^2,N^2-tri((Z)-octadec-9-en-1-yl)ethane-1,2-diamine] | 0.138 | 79.7 | 98.1 | 1577 | 1.64E+09 | 4.71E+09 | 1.54E+08 | 6.15E+08 | 2.84E+06 | 4.82E+06 | 6.06 | 37 | 1.18E+06 |  |
